One assay addresses T1, Dihydrofolate reductase (Pneumocystis carinii, UniProt P16184).
T1 sequence (P16184 whole entry): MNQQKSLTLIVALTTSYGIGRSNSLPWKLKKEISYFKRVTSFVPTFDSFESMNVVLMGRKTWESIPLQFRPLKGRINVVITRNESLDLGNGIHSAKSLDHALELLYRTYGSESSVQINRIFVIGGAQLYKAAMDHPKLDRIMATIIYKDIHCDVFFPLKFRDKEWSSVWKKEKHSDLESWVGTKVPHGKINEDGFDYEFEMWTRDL

In a further assay the test system is Pneumocystis carinii. The assay can be described thus: Concentration required to inhibit uptake of [3H]4-aminobenozoic acid over 24 hr against Pneumocystis carinii microorganisms extracted from immunocompromized rats. As to conditions: Rattus norvegicus.
In assay [1] the target is T2, Bifunctional dihydrofolate reductase-thymidylate synthase (Toxoplasma gondii, UniProt Q07422).
T2 sequence (Q07422 whole entry): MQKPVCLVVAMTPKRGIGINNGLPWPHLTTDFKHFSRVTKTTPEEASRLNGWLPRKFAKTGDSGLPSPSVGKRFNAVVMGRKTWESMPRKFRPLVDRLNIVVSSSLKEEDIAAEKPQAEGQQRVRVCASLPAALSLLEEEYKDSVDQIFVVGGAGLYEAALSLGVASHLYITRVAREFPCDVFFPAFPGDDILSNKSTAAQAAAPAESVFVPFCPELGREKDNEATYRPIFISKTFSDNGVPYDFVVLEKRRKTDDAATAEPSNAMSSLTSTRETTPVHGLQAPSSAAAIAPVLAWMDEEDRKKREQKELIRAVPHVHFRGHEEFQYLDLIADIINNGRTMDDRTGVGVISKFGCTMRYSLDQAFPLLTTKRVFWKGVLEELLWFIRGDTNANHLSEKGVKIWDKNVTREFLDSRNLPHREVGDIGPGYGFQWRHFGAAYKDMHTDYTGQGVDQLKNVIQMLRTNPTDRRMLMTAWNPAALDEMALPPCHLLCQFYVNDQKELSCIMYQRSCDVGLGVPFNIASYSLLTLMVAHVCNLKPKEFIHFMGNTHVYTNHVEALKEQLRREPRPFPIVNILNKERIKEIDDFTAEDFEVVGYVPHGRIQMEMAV
The assay can be described thus: Inhibitory concentration against Toxoplasma gondii dihydrofolate reductase.

The nature of assay [2]: Selectivity index measured as the ratio of IC50 for rat liver DHFR to IC50 for Toxoplasma gondii DHFR.

Take `CCCN(C)/N=N/c1cc(-c2c(N)nc(N)nc2CC)ccc1Cl` [listing 1 of 2 here]: the IC50 at Dihydrofolate reductase turned out to be 7.6 µM.

Turning to `CCc1nc(N)nc(N)c1-c1ccc(Cl)c(/N=N/N(CCOC)CCOC)c1`, the IC50 with Pneumocystis carinii was 30.5 µg/mL; in assay [1], 8.8 µM. In addition, the Selectivity index in assay [2] is 3.

`CCc1nc(N)nc(N)c1-c1ccc(Cl)c(/N=N/N(C)Cc2ccccc2)c1` came in with an IC50 against Dihydrofolate reductase of 0.57 µM. That is a sub-micromolar value.

In the case of `CCc1nc(N)nc(N)c1-c1ccc(Cl)c(/N=N/N2CCCC2)c1`, the IC50 against Dihydrofolate reductase is over 11 µM.

Turning to `CCCN(CCO)/N=N/c1cc(-c2c(N)nc(N)nc2CC)ccc1Cl`, the IC50 on Dihydrofolate reductase turned out to be 2.5 µM.

With `CCc1nc(N)nc(N)c1-c1ccc(Cl)c(/N=N/N(CCO)Cc2ccccc2)c1`, the IC50 came to 11.1 µg/mL in the assay with Pneumocystis carinii and 0.26 µM against Dihydrofolate reductase.

Take `CCc1nc(N)nc(N)c1-c1ccc(Cl)c(/N=N/N(C)C)c1` [listing 1 of 2 here]: the IC50 against Dihydrofolate reductase stood at 2.8 µM; in assay [1] it was 0.31 µM.

With `CCc1nc(N)nc(N)c1-c1ccc(Cl)c(/N=C/N(C)C)c1`, the figures for the IC50 (at Dihydrofolate reductase; in assay [1]) were 10.6 µM and 1.6 µM, respectively.

On to `CCc1nc(N)nc(N)c1-c1ccc(Cl)c(/N=N/N(C(C)(C)C)C(C)(C)C)c1`, for which the IC50 against Dihydrofolate reductase is over 11 µM.

`CCc1nc(N)nc(N)c1-c1ccc(Cl)c(/N=N/N2CCN(C)CC2)c1` came in with a 50% inhibitory concentration (IC50) against Dihydrofolate reductase of 8.5 µM.

At Dihydrofolate reductase, `CCc1nc(N)nc(N)c1-c1ccc(Cl)c(/N=N/N(C)CC)c1` [listing 1 of 2 here] came in with a 50% inhibitory concentration (IC50) of 14.1 µM. Against the preceding compound, the IC50 is about 1.7-fold higher.

In assay [1], `CCc1nc(N)nc(N)c1-c1ccc(N(C)Cc2ccccc2)c([N+](=O)[O-])c1` yielded an IC50 of 0.091 µM. In other words, the double-digit nanomolar range.

For the compound `CCc1nc(N)nc(N)c1-c1ccc(Cl)c(/N=N/N(CCO)C(C)(C)C)c1`, the IC50 against Dihydrofolate reductase came out at 4.9 µM.

On to `CCc1nc(N)nc(N)c1-c1ccc(Cl)c(/N=N/N2CCCCC2)c1`, for which, on Dihydrofolate reductase, inhibition was half-maximal at 40.4 µM (IC50).

For `CCCN(C)/N=N/c1cc(-c2c(N)nc(N)nc2CC)ccc1Cl` [listing 2 of 2 here], at Dihydrofolate reductase, the half-inhibitory concentration (IC50) was 10.2 µM. This IC50 is about 4-fold lower than that of the compound before.

For the compound `CCc1nc(N)nc(N)c1-c1ccc(Cl)c(/N=N/N(C)CC2OCCO2)c1`, half-maximal inhibition on Dihydrofolate reductase (IC50) was put at 0.57 µM. The Selectivity index in assay [2] came to 28.

Compound `N=C(N)c1ccc(OCCCCCOc2ccc(C(=N)N)cc2)cc1` came in with an IC50 with Pneumocystis carinii of 2.5 µM. In other words, the single-digit micromolar range.

With `CCc1nc(N)nc(N)c1-c1ccc(Cl)c([N+](=O)[O-])c1`, the midpoint of inhibition in assay [1], the IC50, lay at 0.013 µM. In addition, in assay [2], the Selectivity index was 1.1.

As to `CCc1nc(N)nc(N)c1-c1ccc(Cl)c([N+]#N)c1`, in assay [1], the IC50 amounted to 0.023 µM. That is a double-digit nanomolar value.

Turning to `CCc1nc(N)nc(N)c1-c1ccc(Cl)c(/N=N/N2CCOCC2)c1`, the results for the IC50 (with Pneumocystis carinii; in assay [1]) were 49.7 µg/mL and 0.19 µM, respectively.

In the case of `CCc1nc(N)nc(N)c1-c1ccc(Cl)c(N=[N+]=[N-])c1`, the results for the IC50 (against Dihydrofolate reductase; in assay [1]) were 1.33 µM and 0.69 µM, respectively. Further, the Selectivity index in assay [2] is 0.5.

In the case of `CCc1nc(N)nc(N)c1-c1ccc(Cl)c(/N=N/N(C)C)c1` [listing 2 of 2 here], the IC50 at Dihydrofolate reductase was found to be 6 µM.

As for `CCc1nc(N)nc(N)c1-c1ccc(Cl)c(/N=N/N(C)CC)c1` [listing 2 of 2 here], inhibition against Dihydrofolate reductase was half-maximal at 6.6 µM (IC50).

Compound `CCc1nc(N)nc(N)c1-c1ccc(Cl)c(/N=N/N2CCC(O)CC2)c1` returned an IC50 at Dihydrofolate reductase of 3.3 µM.

`CCc1nc(N)nc(N)c1-c1ccc(Cl)c(/N=N/N(C)CCO)c1` came in with an IC50 on Dihydrofolate reductase of 3.5 µM. The IC50 values of the last two compounds are within 1.5-fold of each other.

In the assay with Pneumocystis carinii, `CCc1nc(N)nc(N)c1-c1ccc(Cl)c(/N=N/N(CCOC(C)=O)Cc2ccccc2)c1` returned an IC50 of 43.9 µg/mL.

For the compound `CCc1nc(N)nc(N)c1-c1ccc(Cl)c(/N=N/N(CC)CCO)c1`, at Dihydrofolate reductase, it took 11.5 µM to reach half-maximal inhibition (IC50).

Regarding `CCc1nc(N)nc(N)c1-c1ccc(Cl)c(/N=N/N(CCO)CCO)c1`, the IC50 with Pneumocystis carinii amounted to 46.6 µg/mL; at Dihydrofolate reductase, 0.44 µM.

Compound `CCc1nc(N)nc(N)c1-c1ccc(Cl)c(/N=N/N2CCc3ccccc3C2)c1` came in with a 50% inhibitory concentration (IC50) against Dihydrofolate reductase of 5 µM. This lies in the single-digit micromolar range.
